Reference: patent publication US20240174629A1 (OTCPHARM JSC, priority 2021, published 2024)
In brackets after ≈: the same amount, converted by molar mass.

Key:
[1] = Cytotoxicity, microtetrazolium test (MTT); details: dog, MDCK cells, CC50 (MDCK), mean ±SD

Row | Structure (SMILES) | melting point [°C] | CC50 at 48 h [1] [µg/mL]
1 | COC(=O)c1c(N(Cc2ccc(C(F)(F)F)cc2)C(C)=O)sc2c(Cl)c(O)ccc12 [Example 21, Methyl 2-[acetyl(4-trifluoromethylbenzyl)amino]-7-chloro-6-hydroxy-1-benzothiophene-3-carboxylate] | 176 to 180 | 5.6 ± 0.2 (≈ 12.2 µM)
2 | COC(=O)c1c(N(Cc2ccc(C)cc2)C(C)=O)sc2c(Cl)c(O)ccc12 | 195 to 197 | –
3 | CNC(=O)c1c(N(Cc2ccc(F)cc2)C(C)=O)sc2c(Cl)c(O)ccc12 [Example 77] | 192 to 195 | 32.2 ± 2.4 (≈ 79.1 µM)
4 | COC(=O)c1c(N(Cc2ccccc2C(F)(F)F)C(C)=O)sc2c(CN(C)C)c(O)ccc12 [Example 59] | 184 to 188 | > 300
5 | COC(=O)c1c(N(Cc2ccc(F)cc2)C(C)=O)sc2c(CN(C)C)c(O)ccc12 | 145 to 149 | –
6 | COC(=O)c1c(N(Cc2ccc(C(F)(F)F)cc2)C(C)=O)sc2cc(O)ccc12 [Example 22, Methyl 2-[acetyl(4-trifluoromethylbenzyl)amino]-6-hydroxy-1-benzothiophene-3-carboxylate] | 171 to 175 | 3.2 ± 0.8 (≈ 7.56 µM)
7 | CC(=O)N(Cc1ccccc1)c1sc2cc(O)ccc2c1C#N [Example 47, N-benzyl-N-(3-cyano-6-hydroxy-1-benzothiophene-2-yl)acetamide] | – | 16.8 ± 1.5 (≈ 52.1 µM)
8 | COC(=O)c1c(N(Cc2cccc(F)c2)C(C)=O)sc2c(Cl)c(O)ccc12 [Example 25, Methyl 2-[acetyl(3-fluorobenzyl)amino]-7-chloro-6-hydroxy-1-benzothiophene-3-carboxylate] | 152 to 155 | 25.5 ± 2.7 (≈ 62.5 µM)
9 | COC(=O)c1c(N(Cc2ccccc2C#N)C(C)=O)sc2c(CN(C)C)c(O)ccc12 [Example 60] | 178 to 182 | > 300
10 | COC(=O)c1c(N(Cc2ccc(F)cc2)C(C)=O)sc2c(Cl)c(O)ccc12 [Example 27, Methyl 2-[acetyl(4-fluorobenzyl)amino]-7-chloro-6-hydroxy-1-benzothiophene-3-carboxylate] | 233 to 235 | 39.8 ± 2.5 (≈ 97.6 µM)
11 | COC(=O)c1c(N(Cc2ccccc2C)C(C)=O)sc2c(CN(C)C)c(O)ccc12 [Example 58] | 155 to 160 | > 300
12 | COC(=O)c1c(N(Cc2ccc(F)cc2)C(C)=O)sc2cc(O)ccc12 [Example 28, Methyl 2-[acetyl(4-fluorobenzyl)amino]-6-hydroxy-1-benzothiophene-3-carboxylate] | 198 to 202 | 240 ± 19 (≈ 643 µM)
13 | CNC(=O)c1c(N(Cc2ccc(F)cc2F)C(C)=O)sc2c(Cl)c(O)ccc12 [Example 78, 2-[acetyl(2,4-difluorobenzyl)amino]-7-chloro-6-hydroxy-N-methyl-1-benzothiophene-3-carboxamide] | 125 to 130 | 68 ± 5 (≈ 160 µM)
14 | COC(=O)c1c(N(C(C)=O)C(C)c2ccccc2)sc2c(Cl)c(O)ccc12 (stereo not shown) [Example 37, Methyl 2-[acetyl(1-phenylethyl)amino]-7-chloro-6-hydroxy-1-benzothiophene-3-carboxylate] | 195 to 200 | 24.5 ± 2.2 (≈ 60.7 µM)
15 | COC(=O)c1c(N(Cc2cccc(F)c2)C(C)=O)sc2c(CN(C)C)c(O)ccc12 [Example 53] | 142 to 144 | > 300
16 | COC(=O)c1c(N(Cc2cccc(F)c2)C(C)=O)sc2cc(O)ccc12 | 145 to 150 | –
17 | COC(=O)c1c(N(Cc2ccc(F)cc2F)C(C)=O)sc2cc(O)ccc12 [Example 30, Methyl 2-[acetyl(2,4-difluorobenzyl)amino]-6-hydroxy-1-benzothiophene-3-carboxylate] | 178 to 180 | > 300
18 | CNC(=O)c1c(N(Cc2ccccc2Cl)C(C)=O)sc2c(Cl)c(O)ccc12 [Example 74, 2-[acetyl(2-chlorobenzyl)amino]-7-chloro-6-hydroxy-N-methyl-1-benzothiophene-3-carboxamide] | 200 to 202 | 32 ± 4 (≈ 75.6 µM)
19 | COC(=O)c1c(N(Cc2ccccc2C#N)C(C)=O)sc2c(Cl)c(O)ccc12 | 204 to 208 | –
20 | COC(=O)c1c(N(Cc2cccc3ccccc23)C(C)=O)sc2c(Cl)c(O)ccc12 | 210 to 212 | –
21 | CCOC(=O)c1c(N(Cc2ccccc2Cl)C(C)=O)sc2c(Cl)c(O)ccc12 [Example 9, Ethyl 2-[acetyl(2-chlorobenzyl)amino]-7-chloro-6-hydroxy-1-benzothiophene-3-carboxylate] | 174 to 178 | 8.3 ± 0.3 (≈ 18.9 µM)
22 | COC(=O)c1c(N(Cc2ccc(C)cc2)C(C)=O)sc2cc(O)ccc12 | 160 to 164 | –
23 | COC(=O)c1c(N(Cc2ccccc2C)C(C)=O)sc2cc(O)ccc12 | 164 to 168 | –
24 | CC(=O)N(Cc1ccccc1)c1sc2c(Cl)c(O)ccc2c1C#N | 176 to 178 | –
25 | CCOC(=O)c1c(N(Cc2ccc(Cl)cc2)C(C)=O)sc2cc(O)ccc12 | 172 to 176 | –
26 | COC(=O)c1c(N(Cc2ccc(C(C)C)cc2)C(C)=O)sc2cc(O)ccc12 [Example 42, Methyl 2-[acetyl(4-isopropylbenzyl)amino]-6-hydroxy-1-benzothiophene-3-carboxylate] | 141 to 145 | 10 (≈ 25.2 µM)
27 | CC(=O)N(Cc1ccccc1)c1sc2c(Cl)c(O)ccc2c1C(=O)O [Example 66, 2-[acetyl(benzyl)amino]-7-chloro-6-hydroxy-1-benzothiophene-3-carboxylic acid] | 240 to 245 | > 300

Row | Structure (SMILES) | melting point [°C] | CC50 at 48 h [1] [µg/mL]
28 | COC(=O)c1c(N(Cc2ccccc2C(F)(F)F)C(C)=O)sc2c(Cl)c(O)ccc12 | 182 to 186 | –
29 | COC(=O)c1c(N(Cc2ccccc2F)C(C)=O)sc2cc(O)ccc12 [Example 24, Methyl 2-[acetyl(2-fluorobenzyl)amino]-6-hydroxy-1-benzothiophene-3-carboxylate] | 165 to 167 | > 300
30 | CC(=O)N(Cc1ccccc1)c1sc2c(Cl)c(O)ccc2c1C(=O)OC(C)(C)C [Example 5, Tert-butyl 2-[acetyl(benzyl)amino]-7-chloro-6-hydroxy-1-benzothiophene-3-carboxylate] | 200 to 205 | 4.1 ± 0.2 (≈ 9.49 µM)
31 | CC(=O)N(Cc1ccccc1)c1sc2c(Cl)c(O)ccc2c1C(=O)OC(C)C [Example 7, Isopropyl 2-[acetyl(benzyl)amino]-7-chloro-6-hydroxy-1-benzothiophene-3-carboxylate] | 164 to 168 | 2.2 ± 0.3 (≈ 5.26 µM)
32 | CC(=O)N(Cc1ccc(F)cc1F)c1sc2c(Cl)c(O)ccc2c1C(=O)O [Example 71, 2-[acetyl(2,4-difluorobenzyl)amino]-7-chloro-6-hydroxy-1-benzothiophene-3-carboxylic acid] | 238 to 242 | 210 ± 16 (≈ 510 µM)
33 | CC(=O)N(Cc1ccccc1)c1sc2cc(O)ccc2c1C(=O)O [Example 67, 2-[acetyl(benzyl)amino]-6-hydroxy-1-benzothiophene-3-carboxylic acid] | 130 to 135 | > 300
34 | COC(=O)c1c(N(Cc2ccccc2Cl)C(C)=O)sc2c(Cl)c(O)ccc12 | 229 to 233 | –
35 | COC(=O)c1c(N(Cc2ccccc2C(F)(F)F)C(C)=O)sc2cc(O)ccc12 | 165 to 169 | –
36 | CC(=O)N(Cc1ccccc1)c1sc2cc(O)ccc2c1C(=O)OC(C)C [Example 8, Isopropyl 2-[acetyl(benzyl)amino]-6-hydroxy-1-benzothiophene-3-carboxylate] | 126 to 130 | 13.9 ± 1.1 (≈ 36.2 µM)
37 | COC(=O)c1c(N(Cc2ccccc2)C(C)=O)sc2c(Cl)c(O)ccc12 [Example 3, Methyl 2-[acetyl(benzyl)amino]-7-chloro-6-hydroxy-1-benzothiophene-3-carboxylate] | – | 4.5 ± 0.3 (≈ 11.5 µM)
38 | CCOC(=O)c1c(N(Cc2ccc(C)cc2)C(C)=O)sc2c(Cl)c(O)ccc12 | 170 to 172 | –
39 | CC(=O)N(Cc1ccc(F)cc1)c1sc2c(Cl)c(O)ccc2c1C(=O)O | 220 to 224 | –
40 | CC(=O)N(Cc1ccccc1F)c1sc2c(Cl)c(O)ccc2c1C(=O)O | 230 to 234 | –
41 | CCOC(=O)c1c(N(Cc2ccccc2)C(C)=O)sc2c(Cl)c(O)ccc12 [Example 1, Ethyl 2-[acetyl(benzyl)amino]-7-chloro-6-hydroxy-1-benzothiophene-3-carboxylate] | 151 to 155 | > 300
42 | CCNC(=O)c1c(N(Cc2ccccc2)C(C)=O)sc2cc(O)ccc12 [Example 79, 2-[acetyl(benzyl)amino]-6-hydroxy-N-ethyl-1-benzothiophene-3-carboxamide] | 138 to 142 | 250 ± 21 (≈ 679 µM)
43 | CNC(=O)c1c(N(Cc2ccccc2)C(C)=O)sc2c(CN(C)C)c(O)ccc12 | 145 to 147 | –
44 | COC(=O)c1c(N(Cc2ccccc2C)C(C)=O)sc2c(Cl)c(O)ccc12 | 182 to 184 | –
45 | CC(=O)N(Cc1ccccc1)c1sc2cc(O)ccc2c1C(=O)OC(C)(C)C | 185 to 190 | –
46 | CCOC(=O)c1c(N(Cc2ccc(C)cc2)C(C)=O)sc2cc(O)ccc12 | 145 to 147 | –
47 | CCOC(=O)c1c(N(Cc2ccc(Cl)cc2)C(C)=O)sc2c(Cl)c(O)ccc12 | 174 to 176 | –
48 | COC(=O)c1c(N(Cc2ccccc2C#N)C(C)=O)sc2cc(O)ccc12 | 168 to 172 | –
49 | COC(=O)c1c(N(CCc2ccccc2F)C(C)=O)sc2c(Cl)c(O)ccc12 | 172 to 174 | –
50 | COC(=O)c1c(N(Cc2ccc3ccccc3c2)C(C)=O)sc2cc(O)ccc12 | 200 to 202 | –
51 | COC(=O)c1c(N(CCc2ccccc2F)C(C)=O)sc2cc(O)ccc12 | 183 to 185 | –
52 | CCOC(=O)c1c(N(Cc2ccccc2Cl)C(C)=O)sc2cc(O)ccc12 | 176 to 180 | –
53 | CC(=O)N(Cc1ccccc1F)c1sc2cc(O)ccc2c1C(=O)O | 140 to 145 | –
54 | COC(=O)c1c(N(CCc2ccccc2)C(C)=O)sc2c(Cl)c(O)ccc12 | 150 to 155 | –
